Molecules are shown by their SMILES.

Assay [1] addresses T1, Dual specificity mitogen-activated protein kinase kinase 6 (Homo sapiens) (UniProt P52564).
T1 sequence (whole entry): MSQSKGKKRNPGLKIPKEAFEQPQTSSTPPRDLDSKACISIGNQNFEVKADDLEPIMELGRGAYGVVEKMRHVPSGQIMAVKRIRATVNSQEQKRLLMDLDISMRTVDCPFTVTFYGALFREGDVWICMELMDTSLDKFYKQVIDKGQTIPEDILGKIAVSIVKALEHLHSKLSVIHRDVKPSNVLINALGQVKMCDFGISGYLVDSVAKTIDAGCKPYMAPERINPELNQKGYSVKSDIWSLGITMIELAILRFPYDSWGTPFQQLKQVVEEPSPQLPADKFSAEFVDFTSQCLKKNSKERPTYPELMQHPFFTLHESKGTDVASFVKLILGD
Nature of the assay: Selectivity interaction (Kinase panel (KiNativ target engagement assay in Jurkat cells)) EUB0001635a MAP2K6. Format: cell-based. As to conditions: Selectivity number of off-targets 0.0, Selectivity number of targets 233.0, Source Knowledge https://www.sciencedirect.com/science/article/pii/S2451945619300674?via%3Dihub, at 1 µM.

Assay [2] concerns the target T2, Ephrin type-B receptor 6 (Homo sapiens) (UniProt O15197).
T2 sequence (whole entry): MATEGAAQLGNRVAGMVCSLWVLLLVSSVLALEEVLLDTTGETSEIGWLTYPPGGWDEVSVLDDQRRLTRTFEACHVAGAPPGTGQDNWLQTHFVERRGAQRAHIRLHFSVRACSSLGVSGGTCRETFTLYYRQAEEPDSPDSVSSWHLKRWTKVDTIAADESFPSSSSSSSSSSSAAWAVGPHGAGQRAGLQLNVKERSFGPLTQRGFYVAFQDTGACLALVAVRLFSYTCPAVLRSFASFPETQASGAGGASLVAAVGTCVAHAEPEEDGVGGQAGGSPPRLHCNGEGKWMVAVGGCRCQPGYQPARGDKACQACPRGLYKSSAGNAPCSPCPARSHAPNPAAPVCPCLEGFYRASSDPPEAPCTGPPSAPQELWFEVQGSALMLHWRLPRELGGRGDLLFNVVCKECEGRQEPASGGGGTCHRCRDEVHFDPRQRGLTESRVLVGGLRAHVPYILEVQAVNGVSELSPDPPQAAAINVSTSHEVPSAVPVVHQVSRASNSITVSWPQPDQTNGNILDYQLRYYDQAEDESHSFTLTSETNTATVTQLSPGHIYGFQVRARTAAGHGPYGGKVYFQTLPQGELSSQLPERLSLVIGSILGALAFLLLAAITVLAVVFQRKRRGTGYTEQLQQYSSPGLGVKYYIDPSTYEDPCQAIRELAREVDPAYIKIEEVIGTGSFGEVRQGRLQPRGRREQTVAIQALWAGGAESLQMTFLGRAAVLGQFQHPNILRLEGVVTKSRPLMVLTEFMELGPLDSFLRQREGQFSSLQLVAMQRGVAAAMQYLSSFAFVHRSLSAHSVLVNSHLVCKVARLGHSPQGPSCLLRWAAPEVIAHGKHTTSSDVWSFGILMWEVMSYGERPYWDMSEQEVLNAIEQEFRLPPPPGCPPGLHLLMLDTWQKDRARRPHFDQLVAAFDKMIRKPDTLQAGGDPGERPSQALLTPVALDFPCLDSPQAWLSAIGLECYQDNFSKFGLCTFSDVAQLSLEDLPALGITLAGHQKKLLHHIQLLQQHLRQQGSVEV
Nature of the assay: Selectivity interaction (Ambit KINOMEscan and KiNATiv profiling in Jurkat cells) EUB0000090b EPHB6. The format is cell-based. The settings on record: at 1 µM.

Assay [3] concerns the target T3, Tyrosine-protein kinase ITK/TSK (Homo sapiens) (UniProt Q08881).
T3 sequence (whole entry): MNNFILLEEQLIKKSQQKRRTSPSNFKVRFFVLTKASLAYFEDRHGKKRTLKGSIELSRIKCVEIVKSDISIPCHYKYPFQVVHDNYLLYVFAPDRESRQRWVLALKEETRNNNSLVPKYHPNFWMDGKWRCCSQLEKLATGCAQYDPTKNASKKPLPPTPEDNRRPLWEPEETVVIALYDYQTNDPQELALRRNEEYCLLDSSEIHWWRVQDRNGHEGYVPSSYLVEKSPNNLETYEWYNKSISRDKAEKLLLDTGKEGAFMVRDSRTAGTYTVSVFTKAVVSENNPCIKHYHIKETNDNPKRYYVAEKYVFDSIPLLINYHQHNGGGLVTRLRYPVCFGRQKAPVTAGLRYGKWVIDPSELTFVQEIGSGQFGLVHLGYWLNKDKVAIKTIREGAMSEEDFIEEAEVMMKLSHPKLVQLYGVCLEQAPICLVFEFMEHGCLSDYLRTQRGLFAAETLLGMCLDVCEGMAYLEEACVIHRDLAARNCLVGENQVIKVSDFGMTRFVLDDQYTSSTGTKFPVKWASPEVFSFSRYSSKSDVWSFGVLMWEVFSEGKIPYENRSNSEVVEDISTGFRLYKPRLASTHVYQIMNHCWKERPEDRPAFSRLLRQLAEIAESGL
Nature of the assay: Selectivity interaction (Kinase panel (Invitrogen)) EUB0000639a ITK. As to conditions: at 200 nM.

Assay [4] concerns the target Tyrosine-protein kinase Fgr (Homo sapiens) (UniProt P09769). As to the kind of experiment: Selectivity interaction (KinomeScan (DiscoverX)) EUB0000695a FGR. As to conditions: at 100 nM.
For assay [5], the target named is Atypical kinase COQ8A, mitochondrial (Homo sapiens, UniProt Q8NI60). Nature of the assay: Selectivity interaction (KinomeScan (DiscoverX)) EUB0000092b ADCK3. As to conditions: at 10 µM.
The target of assay [6] is Protein kinase C delta type (Homo sapiens) (UniProt Q05655). As to the kind of experiment: Selectivity interaction (KinomeScan (DiscoverX)) EUB0000045b PRKCD.
Protein kinase C delta type (Homo sapiens), sequence (Q05655 whole entry, looked up): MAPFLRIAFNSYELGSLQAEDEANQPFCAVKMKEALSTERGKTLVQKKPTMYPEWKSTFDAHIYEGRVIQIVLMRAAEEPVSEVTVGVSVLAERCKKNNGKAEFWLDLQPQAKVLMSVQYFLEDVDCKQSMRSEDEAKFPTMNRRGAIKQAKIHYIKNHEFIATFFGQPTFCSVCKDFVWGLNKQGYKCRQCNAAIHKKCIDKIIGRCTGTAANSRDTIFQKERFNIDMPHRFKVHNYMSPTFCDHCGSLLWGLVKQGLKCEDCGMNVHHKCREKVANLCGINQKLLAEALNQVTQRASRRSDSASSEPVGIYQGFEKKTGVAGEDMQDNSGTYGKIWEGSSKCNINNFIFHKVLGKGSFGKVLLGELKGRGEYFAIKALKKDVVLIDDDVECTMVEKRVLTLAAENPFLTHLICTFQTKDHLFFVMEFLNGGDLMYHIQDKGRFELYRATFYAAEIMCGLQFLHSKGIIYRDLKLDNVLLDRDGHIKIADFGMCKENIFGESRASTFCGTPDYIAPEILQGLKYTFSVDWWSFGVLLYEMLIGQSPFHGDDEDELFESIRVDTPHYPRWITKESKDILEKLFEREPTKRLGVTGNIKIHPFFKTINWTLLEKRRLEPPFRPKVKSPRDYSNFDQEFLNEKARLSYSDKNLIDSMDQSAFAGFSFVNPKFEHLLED

Tyrosine-protein kinase Fgr (Homo sapiens), sequence (P09769 2-529 limits assumed): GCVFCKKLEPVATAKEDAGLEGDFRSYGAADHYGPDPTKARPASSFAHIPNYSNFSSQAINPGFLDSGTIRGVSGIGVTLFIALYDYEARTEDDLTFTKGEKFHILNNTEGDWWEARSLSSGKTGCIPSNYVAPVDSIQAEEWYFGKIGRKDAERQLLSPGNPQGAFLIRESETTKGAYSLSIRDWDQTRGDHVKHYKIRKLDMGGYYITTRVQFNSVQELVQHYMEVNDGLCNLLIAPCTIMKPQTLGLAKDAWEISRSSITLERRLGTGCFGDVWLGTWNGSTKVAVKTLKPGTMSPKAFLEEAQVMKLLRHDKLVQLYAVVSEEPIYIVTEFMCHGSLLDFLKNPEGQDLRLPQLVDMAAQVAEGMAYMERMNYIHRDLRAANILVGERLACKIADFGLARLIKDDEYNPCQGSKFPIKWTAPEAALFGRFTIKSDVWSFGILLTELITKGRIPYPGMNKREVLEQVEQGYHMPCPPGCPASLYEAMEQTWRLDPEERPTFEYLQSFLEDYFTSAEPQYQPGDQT
Atypical kinase COQ8A, mitochondrial, sequence (Q8NI60 163-647 limits assumed): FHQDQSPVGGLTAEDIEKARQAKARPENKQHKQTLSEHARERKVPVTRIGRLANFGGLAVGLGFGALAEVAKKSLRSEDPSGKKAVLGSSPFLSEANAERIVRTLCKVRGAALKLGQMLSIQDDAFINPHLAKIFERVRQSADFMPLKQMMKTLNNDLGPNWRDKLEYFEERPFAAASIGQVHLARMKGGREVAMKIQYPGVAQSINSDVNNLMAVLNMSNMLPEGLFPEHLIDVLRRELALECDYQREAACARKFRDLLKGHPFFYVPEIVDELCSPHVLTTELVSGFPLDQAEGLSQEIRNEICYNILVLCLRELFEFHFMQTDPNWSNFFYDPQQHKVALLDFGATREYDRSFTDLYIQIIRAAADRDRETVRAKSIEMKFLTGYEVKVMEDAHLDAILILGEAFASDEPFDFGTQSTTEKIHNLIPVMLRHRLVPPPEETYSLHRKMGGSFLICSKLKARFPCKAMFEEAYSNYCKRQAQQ

Molecule `C=CC(=O)Nc1ccc(C(=O)Nc2[nH]nc3c2CN(C(=O)N[C@H](CN(C)C)c2ccccc2)C3(C)C)cc1` yielded a % of engagement in assay [1] of 2.8%.

As to `CN(C)C/C=C/C(=O)Nc1ccc(C(=O)N2CCCC(Nc3ncc(Cl)c(-c4c[nH]c5ccccc45)n3)C2)cc1` (configuration not stated), the % of control in assay [2] amounted to 76%. Turning to `CC[C@@H]1[C@H](F)C(=O)N[C@@H]1COc1nccc2cc(C(N)=O)c(OC)cc12` [ZIMLOVISERTIB], the % of inhibition in assay [3] is -1.94%. In turn, `Cc1cc(F)c(C(=O)Nc2cccc(-c3nncn3C(C)C)n2)cc1-n1cnc(C2CC2)c1` had a % of control in assay [4] of 96%. Turning to `CCC(=O)N1CCN(c2ccc(-n3c(=O)ccc4cnc5ccc(-c6cnc7ccccc7c6)cc5c43)cc2C(F)(F)F)CC1`, in assay [5], the % of control amounted to 17%.

`C=CC(=O)Nc1cc(-n2c(=O)ccc3cnc4ccc(-c5ccc(NS(C)(=O)=O)cc5)cc4c32)ccc1C`: the % of control in assay [6] (at 1 µM) was 41%; in assay [6] (at 10 µM), 91%.

These data come from ChEMBL document CHEMBL5465560, “Selectivity Literature for EUbOPEN Chemogenomic Library” (2024).
